Results as given in PubChem BioAssay (NCI).
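How tested: cells in 96-well plates exposed to compound for 48 hours at five concentrations. Abbreviation: GI50, concentration required for 50% inhibition of growth. TGI: concentration producing complete growth inhibition.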

Tests used:
Test in all cases: inhibition of tumour cell growth, NCI panel, 48 h; in the data active = GI50 below about 0.43 µM; inactive = the rest
MDA-MB-435 = test system: MDA-MB-435
RXF 393 renal = test system: RXF 393 renal
OVCAR-3 ovarian = test system: OVCAR-3 ovarian
SK-MEL-2 melanoma = test system: SK-MEL-2 melanoma
NCI-H522 lung = test system: NCI-H522 lung
SNB-19 CNS = test system: SNB-19 CNS
UO-31 renal = test system: UO-31 renal
SN12C renal = test system: SN12C renal
U251 CNS = test system: U251 CNS
SF-539 CNS = test system: SF-539 CNS
MDA-MB-231 breast = test system: MDA-MB-231 breast
LOX IMVI melanoma = test system: LOX IMVI melanoma
NCI-H460 lung = test system: NCI-H460 lung
SF-295 CNS = test system: SF-295 CNS
TK-10 renal = test system: TK-10 renal
SK-MEL-5 melanoma = test system: SK-MEL-5 melanoma
COLO 205 colon = test system: COLO 205 colon
HCC-2998 colon = test system: HCC-2998 colon
HOP-62 NSCLC = test system: HOP-62 NSCLC
MCF7 breast = test system: MCF7 breast
HCT-15 colon = test system: HCT-15 colon
HCT-116 colon = test system: HCT-116 colon
IGROV1 ovarian = test system: IGROV1 ovarian
A549 NSCLC = test system: A549 NSCLC
NCI-H226 lung = test system: NCI-H226 lung
T-47D breast = test system: T-47D breast
PC-3 prostate = test system: PC-3 prostate
DU-145 prostate = test system: DU-145 prostate
MOLT-4 leukemia = test system: MOLT-4 leukemia
CCRF-CEM leukemia = test system: CCRF-CEM leukemia
RPMI-8226 leukemia = test system: RPMI-8226 leukemia
BT-549 breast = test system: BT-549 breast
NCI/ADR-RES ovarian = test system: NCI/ADR-RES ovarian
UACC-257 melanoma = test system: UACC-257 melanoma
HT29 colon = test system: HT29 colon
SK-OV-3 ovarian = test system: SK-OV-3 ovarian
HL-60(TB) leukemia = test system: HL-60(TB) leukemia
ACHN renal = test system: ACHN renal
EKVX NSCLC = test system: EKVX NSCLC
OVCAR-8 ovarian = test system: OVCAR-8 ovarian
A498 renal = test system: A498 renal
HOP-92 NSCLC = test system: HOP-92 NSCLC
UACC-62 melanoma = test system: UACC-62 melanoma
NCI-H23 lung = test system: NCI-H23 lung
SF-268 CNS = test system: SF-268 CNS
786-0 renal = test system: 786-0 renal
KM12 colon = test system: KM12 colon
OVCAR-4 ovarian = test system: OVCAR-4 ovarian
MALME-3M melanoma = test system: MALME-3M melanoma
SR leukemia = test system: SR leukemia
OVCAR-5 ovarian = test system: OVCAR-5 ovarian
HS 578T breast = test system: HS 578T breast
SK-MEL-28 melanoma = test system: SK-MEL-28 melanoma
K-562 leukemia = test system: K-562 leukemia
SW-620 colon = test system: SW-620 colon

Oc1ccc(N=Nc2ccccn2)c(O)c1
inactive: GI50 (MDA-MB-435) 835 nM | GI50 (RXF 393 renal) 1190 nM | GI50 (SK-MEL-2 melanoma) 7440 nM | GI50 (NCI-H522 lung) 2680 nM | GI50 (SNB-19 CNS) 2070 nM | GI50 (UO-31 renal) 479 nM | GI50 (SN12C renal) 1910 nM | GI50 (U251 CNS) 843 nM | GI50 (SF-539 CNS) 999 nM | GI50 (MDA-MB-231 breast) 641 nM | GI50 (NCI-H460 lung) 543 nM | GI50 (SF-295 CNS) 522 nM | GI50 (TK-10 renal) 661 nM | GI50 (SK-MEL-5 melanoma) 2100 nM | GI50 (COLO 205 colon) 732 nM | GI50 (HCC-2998 colon) 490 nM | GI50 (HOP-62 NSCLC) 832 nM | GI50 (MCF7 breast) 677 nM | GI50 (HCT-116 colon) 428 nM | GI50 (IGROV1 ovarian) 595 nM | GI50 (A549 NSCLC) 2940 nM | GI50 (NCI-H226 lung) 3400 nM | GI50 (T-47D breast) 2050 nM | GI50 (PC-3 prostate) 775 nM | GI50 (DU-145 prostate) 1550 nM | GI50 (CCRF-CEM leukemia) 480 nM | GI50 (RPMI-8226 leukemia) 863 nM | GI50 (BT-549 breast) 628 nM | GI50 (NCI/ADR-RES ovarian) 503 nM | GI50 (UACC-257 melanoma) 3060 nM | GI50 (HT29 colon) 434 nM | GI50 (SK-OV-3 ovarian) 1230 nM | GI50 (ACHN renal) 507 nM | GI50 (OVCAR-8 ovarian) 1630 nM | GI50 (A498 renal) 16700 nM | GI50 (HOP-92 NSCLC) 2090 nM | GI50 (UACC-62 melanoma) 576 nM | GI50 (NCI-H23 lung) 2660 nM | GI50 (SF-268 CNS) 732 nM | GI50 (KM12 colon) 699 nM | GI50 (MALME-3M melanoma) 4860 nM | GI50 (SR leukemia) 723 nM | GI50 (OVCAR-5 ovarian) 2230 nM | GI50 (HS 578T breast) 59600 nM | GI50 (SK-MEL-28 melanoma) 1660 nM | GI50 (K-562 leukemia) 582 nM | GI50 (SW-620 colon) 757 nM
58200 nM: TGI (UACC-62 melanoma)
8750 nM: TGI (HL-60(TB) leukemia)
active: GI50 (OVCAR-3 ovarian) 401 nM | GI50 (LOX IMVI melanoma) 365 nM | GI50 (HCT-15 colon) 423 nM | GI50 (MOLT-4 leukemia) 420 nM | GI50 (HL-60(TB) leukemia) 412 nM | GI50 (EKVX NSCLC) 407 nM | GI50 (786-0 renal) 394 nM | GI50 (OVCAR-4 ovarian) 267 nM
24200 nM: TGI (SK-MEL-5 melanoma)
> 100000 nM: TGI (MDA-MB-435) | TGI (OVCAR-3 ovarian) | TGI (SK-MEL-2 melanoma) | TGI (NCI-H522 lung) | TGI (SNB-19 CNS) | TGI (UO-31 renal) | TGI (SN12C renal) | TGI (U251 CNS) | TGI (MDA-MB-231 breast) | TGI (LOX IMVI melanoma) | TGI (NCI-H460 lung) | TGI (SF-295 CNS) | TGI (TK-10 renal) | TGI (COLO 205 colon) | TGI (HCC-2998 colon) | TGI (HOP-62 NSCLC) | TGI (MCF7 breast) | TGI (HCT-15 colon) | TGI (HCT-116 colon) | TGI (IGROV1 ovarian) | TGI (A549 NSCLC) | TGI (T-47D breast) | TGI (PC-3 prostate) | TGI (DU-145 prostate) | TGI (MOLT-4 leukemia) | TGI (CCRF-CEM leukemia) | TGI (RPMI-8226 leukemia) | TGI (BT-549 breast) | TGI (NCI/ADR-RES ovarian) | TGI (UACC-257 melanoma) | TGI (HT29 colon) | TGI (SK-OV-3 ovarian) | TGI (ACHN renal) | TGI (EKVX NSCLC) | TGI (OVCAR-8 ovarian) | TGI (A498 renal) | TGI (HOP-92 NSCLC) | TGI (NCI-H23 lung) | TGI (SF-268 CNS) | TGI (786-0 renal) | TGI (KM12 colon) | TGI (MALME-3M melanoma) | TGI (SR leukemia) | TGI (OVCAR-5 ovarian) | TGI (HS 578T breast) | TGI (SK-MEL-28 melanoma) | TGI (K-562 leukemia) | TGI (SW-620 colon)
33600 nM: TGI (RXF 393 renal)
61800 nM: TGI (SF-539 CNS)
82100 nM: TGI (NCI-H226 lung)
6410 nM: TGI (OVCAR-4 ovarian)
